Counter-ions that a name gives are not always drawn.
How the values were obtained:
[1] = system: neuro-2a (mouse neuroblastoma cells); assay: Action on neuro-2a: proportion of cells containing outgrown neurites; type: cell-based; details: mean ± S.D.
Method: (§1) The effects of the compounds of this invention on neuroblastoma cells were examined by the following method.
(§2) Mouse neuro 2a cells in the logarithmic growth period in the Dulbecco's modified Eagle's medium DMEM, containing 100 units/ml of penicillin G sodium and 100 micrograms/ml of streptomycin sulfate]containing 10 % of FCS were seeded in a 48-well plate so that the number of cells was 1,000 cells/well, and cultured for one day in 0.25 ml of the culture fluid in each well in an incubator containing 5 % of carbon dioxide gas in air at 37° C. Then, a 4 % aqueous glutaraldehyde solution in the same amount as a medium (0.25 ml) was added, and the culture fluid was left to stand at room temperature for 2 hours to fix the cells. After washing with water, a 0.05 % aqueous solution of methylene blue was added to stain the cells Under a microscope, the number of cells containing outgrown neurites (cells having at least one neurite with a length of at least two times as large as the long diameter of the cell) was counted visually, and the proportion of these cells in the entire cells was calculated. The well was observed over 5 or more visual fields (at least 2 % of the entire surface area of the well) continuous to the left and right from a mark put at the center of the well, and more than 200 cells was counted. One drug compound was used in 6 different concentrations at most, and three runs were conducted for each concentrations.

[2] = system: NS-20Y (mouse neuroblastoma cells); assay: Activity on NS-20Y cells: appearance of neurites; type: cell-based
Method: as §1, §2
Mouse neuroblastoma cells NS-20Y were similarly cultured in a dish coated with polyornithine, and the effects of the compounds were examined.

Row | Compound | Number of cells having neurites with a length at least two times the diameter of each cell/total number of cells ([1]; 0.3 mM) | Number of cells having neurites with a length at least two times the diameter of each cell/total number of cells ([1]; 0.1 mM) | Number of cells having neurites with a length at least two times the diameter of each cell/total number of cells ([1]; 0.03 mM) | also measured
1 | CCOC(=O)c1cnc(NC(C)C)nc1CN(C)C [Compound 828] | 7.3 ± 1.6% | – | – | Number of cells having neurites with a length at least two times the diameter of each cell/total number of cells ([1]; 1 mM): 6.1 ± 2.0%; Number of cells in which neurites appeared/total number of cells ([2]; 24 hours, 0.3 mM): 10/58; Number of cells in which neurites appeared/total number of cells ([2]; 24 hours, 0.5 mM): 5/59; Number of cells in which neurites appeared/total number of cells ([2]; 48 hours, 0.3 mM): 6/50; Number of cells in which neurites appeared/total number of cells ([2]; 48 hours, 0.5 mM): 5/51
2 | CNc1ccnc(N2CCCCC2)n1 [Compound 1014] | 7.6 ± 1.5% | 4.7 ± 0.7% | – | Number of cells in which neurites appeared/total number of cells ([2]; 24 hours, 0.1 mM): 3/50; Number of cells in which neurites appeared/total number of cells ([2]; 24 hours, 0.4 mM): 9/50; Number of cells in which neurites appeared/total number of cells ([2]; 48 hours, 0.4 mM): 6/50
3 | CNc1ccnc(N2CCC(c3ccccc3)CC2)n1.O=C(O)/C=C\C(=O)O [Compound 1026, 4-Methylamino-2-(4-phenylpiperidino)pyrimidine maleate] | – | 5.6 ± 2.2% | 3.5 ± 0.5% | Number of cells in which neurites appeared/total number of cells ([2]; 24 hours, 0.02 mM): 4/50; Number of cells in which neurites appeared/total number of cells ([2]; 24 hours, 0.1 mM): 31/50; Number of cells in which neurites appeared/total number of cells ([2]; 48 hours, 0.02 mM): 2/50
4 | CNc1cc(C)nc(N2CCCCC2)n1 [Compound 1086] | 8.7 ± 0.8% | 3.1 ± 1.3% | 1.9 ± 1.8% | Number of cells having neurites with a length at least two times the diameter of each cell/total number of cells ([1]; 1 mM): 17.4 ± 1.1%; Number of cells in which neurites appeared/total number of cells ([2]; 24 hours, 0.4 mM): 4/50; Number of cells in which neurites appeared/total number of cells ([2]; 48 hours, 0.02 mM): 2/50
5 | CN(C(=O)COc1ccccc1)c1ccnc(N2CCC(c3ccccc3)CC2)n1 [Compound 2286] | – | 8.4 ± 0.8% | 9.7 ± 5.4% | –
6 | CN(C)C(=O)N(C)c1ccnc(N2CCC(c3ccccc3)CC2)n1 [Compound 2294] | – | 8.1 ± 1.6% | 3.7 ± 0.9% | –
7 | CN1C(=O)Cc2cnc(N3CCN(C(c4ccccc4)c4ccccc4)CC3)nc21 [Compound 3128, 2-(4-diphenylmethylpiperazino)-5,6-dihydro-7-methyl-6-oxo(7H)pyrrolo2,3-d]pyrimidine hydrochloride] | 11.9 ± 4.5% | 14.2 ± 1.9% | – | –
8 | CN1C(=O)Cc2cnc(N3CCN(C(c4ccccc4)c4ccc(F)cc4)CC3)nc21 (stereo not drawn) [Compound 3136] | 7.1 ± 3.0% | 20.9 ± 5.3% | 13.8 ± 4.8% | Number of cells having neurites with a length at least two times the diameter of each cell/total number of cells ([1]; 0.01 mM): 5.8 ± 0.6%
9 | Cc1ccc(C(c2ccccc2)N2CCN(c3ncc4c(n3)N(C)C(=O)C4)CC2)cc1.Cc1ccc(S(=O)(=O)O)cc1 (stereo not drawn) [Compound 3152, 2-(4-(α(4-methylphenyl)benzyl)piperazino)-5,6-dihydro-7-methyl-6-oxo(7H)pyrrolo[2,3-d)pyrimidine p-toluenesulfonate] | – | 6.8 ± 4.2% | 11.4 ± 3.1% | –
10 | CN1C(=O)Cc2cnc(N3CCN(C4c5ccccc5-c5ccccc54)CC3)nc21 [Compound 3200] | – | – | – | Number of cells having neurites with a length at least two times the diameter of each cell/total number of cells ([1]; 0.01 mM): 2.7 ± 0.7%
11 | CN1C(=O)Cc2cnc(N3CCN(C(c4ccccc4)(c4ccccc4)c4ccccc4)CC3)nc21 [Compound 3300] | 6.1 ± 1.2% | – | – | Number of cells having neurites with a length at least two times the diameter of each cell/total number of cells ([1]; 1 mM): 7.8 ± 1.0%
12 | CN1C(=O)Cc2cnc(N3CCN(S(C)(=O)=O)CC3)nc21 [Compound 3404] | 3.4 ± 1.4% | – | 3.3 ± 1.3% | –

Reference: US5147876A, “2,6-di,2,4,6-, 2,5,6-tri and 2,4,5,6-tetra-substituted pyrimidines, their pharmaceutically acceptable salts, pharmaceutical compositions containing same and their use in the treatment of neurological diseases” (Mitsui Petrochemical Industries, Ltd., priority 1988, dated 1992)
